Assay [1] relates to type II collagen arthritis in female Lewis rats. Briefly: rat collagen-induced arthritis model (established type II collagen arthritis). The assay is classed as in vivo. As to conditions: for summed ankle histopathology (mean ± standard error), maximum value of 25: day 34. The procedure:
This study evaluated the potential effects of BTK inhibitor in combination with JAK inhibitor in treating arthritis. Lewis rats were injected intradermally/subcutaneously (ID/SC) with porcine type II collagen to induce arthritis. Arthritic rats were treated with vehicle (20% Cremophor EL/10% EtOH/70% saline), Compound A1 (a BTK inhibitor), Compound B4 (a JAK inhibitor), Compound A1 and Compound B4, or Dex (dexamethasone). Compound A1 was administered orally either twice daily at 3, 10, or 20 mg/kg or once daily at 20 mg/kg; Compound B4 was administered orally daily at 2.5 mg/kg; dex was administered daily at 0.075 mg/kg, initiated on day 17. The study was terminated at day 34. Efficacy evaluation was based on body weights, daily ankle caliper measurements, ankle diameter expressed as area under the curve (AUC), terminal hind paw weights, and histopathologic evaluation of right ankles.
This model may reflect certain clinical and histopathologic parameters, such as inflammation, cartilage destruction, and bone resorption that occur in established type II collagen arthritis in female Lewis rats.
Ankle diameters were measured and compared for potential treatment effects. FIG. 1 depicts the measurements taken on Day 9, 13-34 for ankle diameter (in.) (mean±standard error) for the following groups: control (normal and disease), Compound A1 (20 mg/kg, daily), Compound A1 (3 mg/kg, twice daily), Compound B4 (2.5 mg/kg, twice daily), Compound A1 (20 mg/kg, daily) with Compound B4 (2.5 mg/kg, twice daily), Compound A1 (3 mg/kg, twice daily) with Compound B4 (2.5 mg/kg, twice daily) and Dex (0.075 mg/kg daily). In addition, the AUC total sum (day 17-34) (mean f standard error) was measured.
The following score systems were used to evaluate ankle inflammation, ankle pannus, ankle cartilage damage, ankle bone resorption, and periosteal new bone formation, which may represent treatment effects to ankle histology. The sum of the summed ankle histology scores for day 34, are provided herein.
Ankle inflammation scores as used herein have the following meaning: 0=normal; 0.5=minimal focus inflammation; 1=minimal infiltration of inflammatory cells in synovium/periarticular tissue; 2=mild infiltration; 3-moderate infiltration with moderate edema; 4=marked infiltration with marked edema; 5=severe infiltration with severe edema. Ankle pannus scores as used herein have the following meaning: 0=normal; 0.5=minimal infiltration of pannus in cartilage and subchondral bone, affects only marginal zones and affects only a few joints; 1=minimal infiltration of pannus in cartilage and subchondral bone, primarily affects marginal zones; 2=mild infiltration (<25% of tibia or tarsals at marginal zones); 3=moderate infiltration (26%-50% of tibia or small tarsals affected at marginal zones); 4=marked infiltration (51%-75% of tibia or tarsals affected at marginal zones); 5=severe infiltration (>75% of tibia or tarsals affected at marginal zones, severe distortion of overall architecture).

Assay [2] concerns human activated B cell (ABC) subtype DLBCL cell line, TMD8. Description: TMD8 cell viability (CellTiter Glo) growth inhibition assay. It is filed as cell-based. As to conditions: TMD8 cells; for pIC50: Homo sapiens, TMD8, 96 h, 96 hours, read-out: average IC50 (concentration that causes half maximal inhibition of cell growth); for cell growth inhibition over the dose range: four days, Compound D 0-90 nM, Compound A1 0-22 nM. The method, then:
Material and Methods: The effect of the combination of a BET inhibitor, (2-cyclopropyl-6-(3,5-dimethylisoxazol-4-yl)-1H-benzo[d]imidazol-4-yl)di(pyridin-2-yl)methanol (Compound D), and BTK inhibitor (Compound A1) on growth inhibition of the human activated B cell (ABC) subtype DLBCL cell line, TMD8, was evaluated in vitro. TMD8 cells were dosed with a matrix of Compound D (0-90 nM) and compound A1 (0-22 nM) and treated for four days, after which cell viability was measured by a CellTiter Glo assay. A representative heatmap of this dose matrix for cell growth inhibition is shown in FIG. 2 (0% to 100% growth inhibition). […] Synergy was defined as the excess over the predicted additive interaction between the compounds using Bliss analysis.
Cells were plated at a density of 4,000 cells per well in 384-well (Grenier 781086) tissue culture black well plates already spotted with compounds by a Labcyte Echo liquid handler. […] The predicted response under Bliss additivity for any combination of drugs at a given concentration pair was determined by Ra+Rb−Ra*Rb, where Ra and Rb are the responses of Compounds D and A1 (i.e., cell growth inhibition). The total Bliss score was determined by summing the differences between the observed values and the predicted additive value at each pair of concentrations assayed. Only values where the difference is greater than the 95% confidence interval of the measurements are included in the sum.

[3] abbreviates: Compound B4 2.5 mg/kg, twice daily, orally.
[4] abbreviates: Compound A1 3 mg/kg, twice daily, orally.
Setting [5] is: Compound A1 10 mg/kg, twice daily, orally.
[6] abbreviates: Compound A1 20 mg/kg, daily, orally.
The mark [7] stands for this setting: Compound A1 20 mg/kg, twice daily, orally.

pIC50: −log10 of the molar value. Where two headings read alike, the source gives them in different places.

`C[C@@H]1CCN(C(=O)CC#N)C[C@@H]1N(C)c1ncnc2[nH]ccc12` [Compound B4, 3-((3R,4R)-4-methyl-3-(methyl(7H-pyrrolo[2,3-d]pyrimidin-4-yl)amino)piperidin-1-yl)-3-oxopropanenitrile, reference compound]: in assay [1] (setting [3]), the “ED-1 immunopositive osteoclast count (mean ± standard error)” value turned out to be 16±1.7, the “ankle diameter AUC total sum (day 17-34) (mean ± standard error)” value amounted to 5.6±0.083, the “percent inhibition of the AUC total sum (day 17-34)” value (from here on “percent inhibition … (day 17-34)”) stood at 28% and the “percent inhibition of the ED-1 immunopositive osteoclast count” value turned out to be 14%. Moreover, in assay [1] (setting [3]), the “percent inhibition of the summed ankle histopathology” value was 23% and the “summed ankle histopathology (mean ± standard error), maximum value of 25” value is listed as 19±1.4.

Take `Cc1noc(C)c1-c1cc(C(O)(c2ccccn2)c2ccccn2)c2nc(C3CC3)[nH]c2c1` [Compound D, (2-cyclopropyl-6-(3,5-dimethylisoxazol-4-yl)-1H-benzo[d]imidazol-4-yl)di(pyridin-2-yl)methanol]: the pIC50 is 7.60 in assay [2] (Compound D alone), 7.96 in assay [2] (in the presence of 5.5 nM of Compound A1) and 8.10 in assay [2] (in the presence of 11 nM of Compound A1). Further, the “cell growth inhibition over the dose range” value in assay [2] is on record as “reduced cell growth”.

On to `C[C@@H]1C[C@H]2[C@@H]3CCC4=CC(=O)C=C[C@]4(C)[C@@]3(F)[C@@H](O)C[C@]2(C)[C@@]1(O)C(=O)CO` [Dex, dexamethasone, reference compound], for which, in assay [1] (Dex 0.075 mg/kg), the “ED-1 immunopositive osteoclast count (mean ± standard error)” value amounted to 4±1.4, the “percent inhibition … (day 17-34)” value worked out at 56%, the “percent inhibition of the ED-1 immunopositive osteoclast count” value was 85% and the “percent inhibition of the summed ankle histopathology” value is recorded as 51%. Further, in assay [1] (Dex 0.075 mg/kg daily), the “ankle diameter AUC total sum (day 17-34) (mean ± standard error)” value is recorded as 5.2±0.069 and the “summed ankle histopathology (mean ± standard error), maximum value of 25” value turned out to be 12±1.0.

As for `CC#CC(=O)N1CC[C@@H](n2c(=O)n(-c3ccc(Oc4ccccc4)cc3)c3c(N)ncnc32)C1` [Compound A1, (R)-6-amino-9-(1-(but-2-ynoyl)pyrrolidin-3-yl)-7-(4-phenoxyphenyl)-7H-purin-8(9H)-one], the “cell growth inhibition over the dose range” value in assay [2] is recorded as “reduced cell growth”. In assay [1] (setting [4]), the “ED-1 immunopositive osteoclast count (mean ± standard error)” value worked out at 7±1.3, the “ankle diameter AUC total sum (day 17-34) (mean ± standard error)” value is listed as 5.9±0.079, the “percent inhibition … (day 17-34)” value stood at 13% and the “percent inhibition of the ED-1 immunopositive osteoclast count” value was found to be 65%. In assay [1] (setting [4]), the “percent inhibition of the summed ankle histopathology” value was found to be 10% and the “summed ankle histopathology (mean ± standard error), maximum value of 25” value stood at 23±0.6. For the same compound, in assay [1] (setting [5]), the “ED-1 immunopositive osteoclast count (mean ± standard error)” value is reported as 8±1.9, the “ankle diameter AUC total sum (day 17-34) (mean ± standard error)” value came out at 5.9±0.102, the “percent inhibition … (day 17-34)” value is listed as 9% and the “percent inhibition of the ED-1 immunopositive osteoclast count” value was determined as 62%. Also, in assay [1] (setting [5]), the “percent inhibition of the summed ankle histopathology” value is given as 16% and the “summed ankle histopathology (mean ± standard error), maximum value of 25” value is on record as 21±1.4. Besides, in assay [1] (setting [6]), the “ED-1 immunopositive osteoclast count (mean ± standard error)” value was determined as 9±1.5, the “ankle diameter AUC total sum (day 17-34) (mean ± standard error)” value was determined as 5.9±0.096, the “percent inhibition … (day 17-34)” value is listed as 13% and the “percent inhibition of the ED-1 immunopositive osteoclast count” value was determined as 56%. In addition, in assay [1] (setting [6]), the “percent inhibition of the summed ankle histopathology” value is 15% and the “summed ankle histopathology (mean ± standard error), maximum value of 25” value worked out at 21±0.7. For the same compound, in assay [1] (setting [7]), the “ED-1 immunopositive osteoclast count (mean ± standard error)” value is given as 4±0.7, the “ankle diameter AUC total sum (day 17-34) (mean ± standard error)” value amounted to 5.8±0.124, the “percent inhibition … (day 17-34)” value is 15% and the “percent inhibition of the ED-1 immunopositive osteoclast count” value worked out at 83%. For the same compound, in assay [1] (setting [7]), the “percent inhibition of the summed ankle histopathology” value worked out at 18% and the “summed ankle histopathology (mean ± standard error), maximum value of 25” value was found to be 21±0.6.
